Data taken from PubChem BioAssay (NCI).
Several values for one entry are separate records, joined by “and”; a condition that tells them apart may be missing. Equal values may be shown once.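 Test compounds were applied to cells in 96-well plates for 48 hours at 5 doses. GI50 is the concentration that inhibits growth by half. The concentration for full growth arrest is given as TGI.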

Key:
Test in all cases: NCI-60 cell line screen, 48 h
[1] = tested on: SW-620 colon
[2] = tested on: T-47D breast
[3] = tested on: DU-145 prostate
[4] = tested on: MOLT-4 leukemia
[5] = tested on: SF-539 CNS
[6] = tested on: SK-MEL-5 melanoma

COC(=O)c1c2c(c(C)[n+]([O-])c1C)C(=O)C=C(NCc1ccc(F)cc1)C2=O
GI50 [1]: 0.344 µM
TGI [1]: 1.38 µM
GI50 [2]: 0.288 µM
TGI [2]: 1.88 µM
GI50 [3]: 1.15 µM
TGI [3]: 2.4 µM
GI50 [4]: 0.858 µM
TGI [4]: 3.09 µM
GI50 [5]: 0.641 µM
TGI [5]: 1.87 µM
GI50 [6]: 0.193 µM
TGI [6]: 0.405 µM

O=c1c(F)cn(Cc2ccc(C34CC5CC(CC(C5)C3)C4)c(O)c2)c(=O)n1Cc1ccc(C23CC4CC(CC(C4)C2)C3)c(O)c1
GI50 [1]: 10.7 µM
TGI [1]: 26.4 µM
GI50 [2]: 20.8 µM
TGI [2]: 51.6 µM
GI50 [3]: 8.59 µM
TGI [3]: 22.9 µM
GI50 [4]: 5.85 µM
TGI [4]: 44.4 µM
GI50 [5]: 11.5 µM
TGI [5]: 24.4 µM
GI50 [6]: 13.9 µM
TGI [6]: 27 µM

CN1CCN(c2ccc(Nc3cc(-c4cccc(-n5ccc6cc(C7CC7)cc(F)c6c5=O)c4CO)cn(C)c3=O)nc2)CC1
GI50 [1]: 4.74 µM
TGI [1]: 23.9 µM
GI50 [2]: 3.04 µM
TGI [2]: 15.9 µM
GI50 [3]: 7.9 µM
TGI [3]: 22 µM
GI50 [4]: 3.73 µM
TGI [4]: 19.1 µM
GI50 [5]: 1.82 µM
TGI [5]: 3.63 µM
GI50 [6]: 11.9 µM
TGI [6]: 31.1 µM

CN(C)CC[C@H](CSc1ccccc1)Nc1ccc(S(=O)(=O)NC(=O)c2ccc(N3CCN(Cc4ccccc4-c4ccc(Cl)cc4)CC3)cc2)cc1[N+](=O)[O-]
GI50 [1]: 4.02 µM
TGI [1]: > 61.1 µM
GI50 [2]: 5.87 µM
TGI [2]: > 60.4 µM
GI50 [3]: 23 µM
TGI [3]: > 100 µM
GI50 [4]: 0.392 µM
TGI [4]: 2.64 µM
GI50 [5]: 36.5 µM
TGI [5]: > 100 µM
GI50 [6]: 1.56 µM
TGI [6]: 3.23 µM

NS(=O)(=O)c1ccc(N=Nc2c(O)c(C(=O)O)cc3ccccc23)cc1
TGI [1]: > 100 µM
TGI [2]: > 100 µM
TGI [3]: > 100 µM
TGI [4]: > 100 µM
TGI [5]: > 100 µM
TGI [6]: > 100 µM

Cc1nnc(Nc2ccc(NC(=O)Nc3ccc(Cl)cc3)cc2)c2ccccc12
GI50 [1]: 2.15 µM
TGI [1]: 4.76 µM
GI50 [2]: 2.06 µM
TGI [2]: 5.08 µM
GI50 [3]: 4.77 µM
TGI [3]: 19.5 µM
GI50 [4]: 2.36 µM
TGI [4]: 6 µM
GI50 [5]: 1.61 µM
TGI [5]: 3.32 µM
GI50 [6]: 1.85 µM
TGI [6]: 3.5 µM

O=C(Cc1ccc(F)c(Cl)c1)Nc1cc(C2(C(F)(F)F)CC2)nn1CC1CCCCC1
GI50 [1]: 3.92 µM
TGI [1]: 14.4 µM
GI50 [2]: 3.78 µM
TGI [2]: 13.6 µM
GI50 [3]: 5.39 µM
TGI [3]: > 15 µM
GI50 [4]: 3.37 µM
TGI [4]: 9.57 µM
GI50 [5]: 4.86 µM
TGI [5]: > 15 µM
GI50 [6]: 2.61 µM
TGI [6]: 4.88 µM

CCn1c(O)c(/C=N/NC(=O)C(C)c2ccc(CC(C)C)cc2)sc1=S (centres undefined)
GI50 [1]: 0.394 µM
TGI [1]: > 40.9 µM
GI50 [2]: 0.56 µM
TGI [2]: > 100 µM
GI50 [3]: 0.365 µM
TGI [3]: > 22.1 µM
GI50 [4]: 0.479 µM
TGI [4]: > 48.2 µM
GI50 [5]: 0.214 µM
TGI [5]: 0.609 µM
GI50 [6]: 0.489 µM
TGI [6]: 3.26 µM

COC(=O)c1ccc2c(c1)C(=O)c1c-2n(CCCN=[N+]=[N-])c(=O)c2cc(OC)c(OC)cc12
GI50 [1]: > 100 µM
TGI [1]: > 100 µM
GI50 [3]: > 100 µM
TGI [3]: > 100 µM
GI50 [4]: 3.82 µM
TGI [4]: 19.1 µM
GI50 [5]: > 100 µM
TGI [5]: > 100 µM
GI50 [6]: > 100 µM
TGI [6]: > 100 µM

Cc1cc(N[C@@H]2CCC[C@H](Nc3ccnc4cc(Cl)ccc34)C2)nc(N2CCCCCC2)n1
GI50 [1]: 1.52 µM
TGI [1]: 3.28 µM
GI50 [2]: 2.22 µM
TGI [2]: 5.38 µM
GI50 [3]: 2.99 µM
TGI [3]: 10.6 µM
GI50 [4]: 1.6 µM
TGI [4]: 5.73 µM
GI50 [5]: 1.59 µM
TGI [5]: 3.03 µM
GI50 [6]: 1.86 µM
TGI [6]: 3.27 µM

NC(N)=N/N=C/c1c(Cl)cccc1Cl
GI50 [1]: 15.8 µM
TGI [1]: 30.6 µM
GI50 [2]: 14.7 µM
TGI [2]: 39.6 µM
GI50 [3]: 23.1 µM
TGI [3]: > 100 µM
GI50 [4]: 28.2 µM
TGI [4]: 74.5 µM
GI50 [5]: 23.7 µM
TGI [5]: > 100 µM
GI50 [6]: 14.6 µM
TGI [6]: 27.7 µM

Nc1ncn([C@@H]2O[C@H](CO)[C@@H](O)[C@H]2O)c(=O)n1
GI50 [1]: 1.71 µM
TGI [1]: > 100 µM
GI50 [3]: 0.775 µM
TGI [3]: 9.34 µM
GI50 [4]: 3.41 µM
TGI [4]: 32.1 µM
GI50 [6]: 2.15 µM
TGI [6]: 7.04 µM

CC(=O)Nc1ccc(-c2csc(Nc3cccc(-c4csc(C)n4)c3)n2)cc1
GI50 [1]: 3.51 µM
TGI [1]: 49 µM
GI50 [2]: 2.65 µM
TGI [2]: > 43.2 µM
GI50 [3]: 3.85 µM
TGI [3]: 22.7 µM
TGI [4]: > 50 µM
GI50 [5]: 1.1 µM
TGI [5]: 6.83 µM
GI50 [6]: 0.26 µM
TGI [6]: 8.62 µM

COc1cc(N(CCC#N)CCC#N)ccc1/C(N=Nc1ccc(Cl)cc1)=N/NC(=O)c1cc(Br)ccc1O
GI50 [1]: > 150 µg/mL
TGI [1]: > 150 µg/mL
GI50 [2]: 69.9 µg/mL
TGI [2]: > 150 µg/mL
GI50 [3]: 143 µg/mL
TGI [3]: > 150 µg/mL
GI50 [4]: 32.9 µg/mL
TGI [4]: > 150 µg/mL
GI50 [5]: 73.3 µg/mL
TGI [5]: > 150 µg/mL
GI50 [6]: 82 µg/mL
TGI [6]: > 150 µg/mL

O=C(Nc1cc(C(F)(F)F)cc(C(F)(F)F)c1)c1cc(Cl)ccc1O
GI50 [1]: 0.316 µM and 0.312 µM
TGI [1]: 3.26 µM and 10.4 µM
GI50 [2]: 0.15 µM and 0.194 µM
TGI [2]: 0.604 µM and 1.24 µM
GI50 [3]: 0.345 µM and 0.347 µM
TGI [3]: > 5.23 µM and 10.8 µM
GI50 [4]: 0.269 µM and 0.332 µM
TGI [4]: 0.845 µM and 2.69 µM
GI50 [5]: 0.3 µM and 0.264 µM
TGI [5]: 1.88 µM and 1.59 µM
GI50 [6]: 0.0632 µM and 0.094 µM
TGI [6]: 0.206 µM and 0.257 µM

Clc1cc2c(c(CSc3nc4ccccc4n4cccc34)c1)OCOC2
GI50 [1]: > 100 µM
TGI [1]: > 100 µM
GI50 [2]: 0.596 µM
TGI [2]: 9.33 µM
GI50 [3]: > 100 µM
TGI [3]: > 100 µM
GI50 [4]: > 100 µM
TGI [4]: > 100 µM
GI50 [5]: 22.9 µM
TGI [5]: > 100 µM
GI50 [6]: > 100 µM
TGI [6]: > 100 µM

O=C(Nc1ccc(Br)cc1F)c1cc(Cl)ccc1O
GI50 [1]: 1.05 µM
TGI [1]: > 39.2 µM
GI50 [2]: 0.466 µM
TGI [2]: 4.83 µM
GI50 [3]: 0.899 µM
TGI [3]: > 100 µM
GI50 [4]: 1.76 µM
TGI [4]: 5.11 µM
GI50 [5]: 0.594 µM
TGI [5]: 5.85 µM
GI50 [6]: 0.273 µM
TGI [6]: 0.815 µM

O=c1oc2ccc(-c3ccc(F)cc3F)cc2c(=O)n1-c1cccc(C(F)(F)F)c1
GI50 [1]: 2.64 µM
TGI [1]: 12.8 µM
GI50 [2]: 0.317 µM
TGI [2]: 3.29 µM
GI50 [3]: 2.79 µM
TGI [3]: 16.4 µM
GI50 [4]: 2.15 µM
TGI [4]: 4.97 µM
GI50 [5]: 1.41 µM
TGI [5]: 6.95 µM
GI50 [6]: 0.44 µM
TGI [6]: 1.71 µM

CCOc1ccc(/C=C2\N=C(c3ccc([N+](=O)[O-])cc3)OC2=O)cc1
TGI [1]: > 100 µM
TGI [2]: > 100 µM
TGI [3]: > 100 µM
TGI [4]: > 100 µM
TGI [5]: > 100 µM
TGI [6]: > 100 µM
